The data set is described as follows: in vitro. To be noted: rat, gh3-tre-luc cells.

As a reminder, the CC50 is the concentration at which the toxic effect on the cells reaches its halfway point. Read a high CC50 as lower toxicity to the cells.

Structures can show the parent of a compound that is named as a salt.

Take `CC(=O)O[C@H]1C[C@@H]2CC[C@@H]3[C@H](CC[C@@]4(C)[C@H]3C[C@H]([N+]3(C)CCCCC3)[C@@H]4OC(C)=O)[C@@]2(C)C[C@@H]1[N+]1(C)CCCCC1` [Pancuronium bromide]: the CC50 at 24 h (AC50 (uM) modified / 1000) is > 50 µM.

The compound `CN1CCN(Cc2cc(-c3ccc4[nH]c(=O)oc4c3)co2)[C@@H](c2ccc(F)cc2)C1` [AVE8488] registered a CC50 at 24 h (AC50 (uM) modified / 1000) of 24.8 µM. Still for that read-out and setting: under `CCCCCCCCCCCCCCC(Br)C(=O)O` (stereo not shown) [2-Bromohexadecanoic acid] stands > 90 µM. As to `O=[P@]1(N(CCCl)CCCl)N[C@H](OO)CCO1` [4-Hydroperoxy cyclophosphamide], the half-maximal cytotoxic concentration (CC50) at 24 h (AC50 (uM) modified / 1000, Tox21_110001=Tox21_113608, viability, 1 nM T3 present, 24 h) is > 50 µM.

In the case of `C=CC(=O)OCCN(C)C` [2-(Dimethylamino)ethyl acrylate], the CC50 at 24 h (AC50 (uM) modified / 1000) is > 90 µM. The same measure, in the same setting: as for `C=CC(=O)NCOCC(C)C` [N-(Isobutoxymethyl)acrylamide], the figure is > 90 µM; as for `C1C2OC2C2C1C1CC2C2OC12` (stereo not shown) [Dicyclopentadiene dioxide], > 90 µM. Regarding `CCCOc1ccccc1-c1nc2nn[nH]c2c(=O)[nH]1` [Zaprinast], the CC50 at 24 h (AC50 (uM) modified / 1000) was > 50 µM. Turning to `Clc1ccccc1-c1ccccc1Cl` [2,2'-Dichlorobiphenyl], for the setting “AC50 (uM) modified / 1000, Tox21_110001=Tox21_202244, viability, 1 nM T3 present, 24 h”, the CC50 at 24 h is > 100 µM.

`CC(C)(C)c1cc(O)c(C(C)(C)C)cc1O` [2,5-Di-tert-butylbenzene-1,4-diol]: it took 37.2 µM to reach half-maximal cytotoxicity (AC50 (uM) modified / 1000) (CC50 at 24 h). As for `Cc1ccc2ccccc2c1` [2-Methylnaphthalene], the CC50 at 24 h (AC50 (uM) modified / 1000, Tox21_110001=Tox21_200839, viability, 1 nM T3 present, 24 h) is > 90 µM. In the case of `C=CCn1c(=O)n([C@@H]2O[C@H](CO)[C@@H](O)[C@H]2O)c2nc(N)[nH]c(=O)c21` [Loxoribine], the CC50 at 24 h (AC50 (uM) modified / 1000) is > 50 µM. `NNC(=O)OCc1ccccc1` [Hydrazinecarboxylic acid, phenylmethyl ester]: the CC50 at 24 h (AC50 (uM) modified / 1000) is > 90 µM. Same read-out and setting: under `CCCC(=O)OC[C@@H](OC(=O)CCC)[C@@H](OC(=O)CCC)[C@H](Cn1c2nc(=O)[nH]c(=O)c-2nc2cc(C)c(C)cc21)OC(=O)CCC` [Riboflavin tetrabutyrate] stands > 50 µM; under `COc1ccc2cc(S(=O)(=O)N[C@H](CC(=O)N[C@H](Cc3ccc(CN4[C@H](C)CCC[C@@H]4C)cc3)C(=O)N(C)C(C)C)c3ccc4c(c3)OCO4)ccc2c1` [SSR 240612], 4.04 µM; under `CCCOC(=O)CC` [Propyl propionate], > 90 µM. Still for that read-out and setting: as for `NC(CO)C(=O)NNCc1ccc(O)c(O)c1O` (stereo not shown) [Benserazide hydrochloride], the figure is > 50 µM; as for `C1CCCCC1` [Cyclohexane], > 90 µM.

Take `C[C@H](O)[C@H](O)[C@H]1CNc2nc(N)[nH]c(=O)c2N1` [(6R)-Tetrahydrobiopterin dihydrochloride]: for the setting “AC50 (uM) modified / 1000”, the half-maximal cytotoxic concentration (CC50) at 24 h was > 50 µM.

As to `Nc1nc2c(ncn2CCC(CO)CO)c(=O)[nH]1` [Penciclovir], the CC50 at 24 h (AC50 (uM) modified / 1000) is > 50 µM.

In the case of `COC(OC)C(C)c1ccccc1` (stereo not shown) [2-Phenylpropionaldehyde dimethyl acetal], the CC50 at 24 h (AC50 (uM) modified / 1000) was > 90 µM. On the same count and under the same terms, as for `CCCC(CC)c1ccccc1` (stereo not shown) [3-Phenylhexane], the figure is > 90 µM; as for `CC(=O)OCc1ccco1` [Furfuryl acetate], > 90 µM. Regarding `NNC(=O)CCCCC(=O)NN` [Hexanedihydrazide], the CC50 at 24 h (AC50 (uM) modified / 1000) was > 90 µM. The same measure, in the same setting: under `CCCOC(=O)c1ccc(O)cc1` [Propylparaben] stands > 90 µM; under `O=C(NCNC(=O)NC1C(=O)NC(=O)N1CO)NC1C(=O)NC(=O)N1CO` (stereo not shown) [Imidazolidinyl urea], > 90 µM. Still for that read-out and setting: under `Cc1cc2c(OCC(CNC(C)(C)C)OC(=O)c3ccccc3)cccc2[nH]1` (stereo not shown) [Bopindolol] stands 42.5 µM; under `CCn1cc[n+](C)c1` [1-Ethyl-3-methylimidazolium thiocyanate], > 90 µM; under `C=CC(C)(CCC=C(C)C)OC(=O)C(C)C` (stereo not shown) [Linalyl isobutyrate], > 90 µM. Regarding `BrCCc1ccccc1` [Phenethyl bromide], the CC50 at 24 h (AC50 (uM) modified / 1000, Tox21_110001=Tox21_200102, viability, 1 nM T3 present, 24 h) was > 90 µM. For the compound `COC(=O)CCC[N+](C)(C)C` [Carpronium chloride], where the note is “AC50 (uM) modified / 1000”, the CC50 at 24 h was > 50 µM. Still for that read-out and setting: under `CC1(C)O[C@H]2CC(=O)OC[C@]23[C@H]2CC[C@@]4(C)[C@H](c5ccoc5)OC(=O)[C@H]5O[C@]54[C@]2(C)C(=O)C[C@@H]13` [Limoni] stands > 50 µM. As for `Cc1ccccc1-n1c(CF)nc2ccc(N)cc2c1=O` [Afloqualone], the CC50 at 24 h (AC50 (uM) modified / 1000, Tox21_110001=Tox21_112447, viability, 1 nM T3 present, 24 h) was > 50 µM. Take `CCCCCCCCCCCCCCCC(=O)NCCO` [Palmitoylethanolamide]: the CC50 at 24 h (AC50 (uM) modified / 1000) was > 50 µM.

Regarding `CCC(=O)OCc1ccccc1` [Benzyl propanoate], where the note is “AC50 (uM) modified / 1000”, the CC50 at 24 h is > 90 µM. As to `O=C(CCCCC(=O)Nc1c(I)cc(I)c(C(=O)O)c1I)Nc1c(I)cc(I)c(C(=O)O)c1I` [Iodipamide], the CC50 at 24 h (AC50 (uM) modified / 1000) was > 50 µM. The same measure, in the same setting: as for `NC(=O)Nc1nc2ccccc2[nH]1` [2-Benzimidazolylurea], the figure is > 90 µM; as for `Cc1cc(O)c(C(C)(C)C)cc1C(C)(C)C` [4,6-Di-tert-butyl-m-cresol], 22.6 µM; as for `Cc1nc(-c2ccc(OCC(C)C)c(C#N)c2)sc1C(=O)O` [Febuxostat], > 50 µM. On the same count and under the same terms, under `CN(C)C(=O)Nc1ccc(Cl)c(Cl)c1` [Diuron] stands > 90 µM.

In the case of `Oc1ccc(C2CNCCc3c2cc(O)c(O)c3Cl)cc1` (stereo not shown) [Fenoldopam], the half-maximal cytotoxic concentration (CC50) at 24 h (AC50 (uM) modified / 1000) was > 50 µM. `CC1(C)C(=O)N(Cl)C(=O)N1Br` [1-Bromo-3-chloro-5,5-dimethylhydantoin]: the CC50 at 24 h (AC50 (uM) modified / 1000) is > 90 µM. Still for that read-out and setting: under `O=C1CCC(=O)O1` [Succinic anhydride] stands > 90 µM; under `CC(O)Cn1cnc2c1c(=O)n(C)c(=O)n2C` (stereo not shown) [Proxyphylline], > 20 µM. Take `CCCC(=O)OC(C(Cl)(Cl)Cl)P(=O)(OC)OC` (stereo not shown) [Butonate]: the CC50 at 24 h (AC50 (uM) modified / 1000, Tox21_110001=Tox21_111908, viability, 1 nM T3 present, 24 h) is > 50 µM.

Consider `CC(/C=C/C=C(\C)C(=O)O[C@@H]1O[C@H](CO[C@@H]2O[C@H](CO)[C@@H](O)[C@H](O)[C@H]2O)[C@@H](O)[C@H](O)[C@H]1O)=C\C=C\C=C(C)\C=C\C=C(/C)C(=O)O[C@@H]1O[C@H](CO[C@@H]2O[C@H](CO)[C@@H](O)[C@H](O)[C@H]2O)[C@@H](O)[C@H](O)[C@H]1O` [Crocin], for which, under “AC50 (uM) modified / 1000”, the cytotoxic concentration (CC50) at 24 h was > 50 µM.

Take `Oc1ccc(Cl)cc1Cc1ccccc1` [Clorophene]: the half-maximal cytotoxic concentration (CC50) at 24 h (AC50 (uM) modified / 1000, Tox21_110001=Tox21_111146, viability, 1 nM T3 present, 24 h) stood at 23.9 µM; half-maximal cytotoxicity (AC50 (uM) modified / 1000, Tox21_110001=Tox21_202985, viability, 1 nM T3 present, 24 h) (CC50 at 24 h) was put at 43.2 µM; the CC50 at 24 h (AC50 (uM) modified / 1000, Tox21_110001=Tox21_400046, viability, 1 nM T3 present, 24 h) worked out at 61.9 µM. Turning to `Oc1cccc(Nc2ccccc2)c1` [3-Hydroxy-N-phenylaniline], the CC50 at 24 h (AC50 (uM) modified / 1000) was > 100 µM. Still for that read-out and setting: as for `C[N+](C)(C)CCOC(=O)CCC(=O)OCC[N+](C)(C)C` [Succinylcholine chloride], the figure is > 50 µM; as for `CCOc1ccc(O)cc1` [4-Ethoxyphenol], > 90 µM. Regarding `COC(=O)c1ccc(C=O)cc1` [Methyl 4-formylbenzoate], the CC50 at 24 h (AC50 (uM) modified / 1000) was > 90 µM.

Take `CCCCCCCCCCC(CO)CCCCCCCC` (stereo not shown) [2-Octyl-1-dodecanol]: the CC50 at 24 h (AC50 (uM) modified / 1000) is > 90 µM. In the case of `O=P(O)(O)CN(CP(=O)(O)O)CP(=O)(O)O` [Aminotrimethylene phosphonic acid], the CC50 at 24 h (AC50 (uM) modified / 1000, Tox21_110001=Tox21_202753, viability, 1 nM T3 present, 24 h) was > 20 µM. Consider `CCCCCCCCC` [Nonane], for which the CC50 at 24 h (AC50 (uM) modified / 1000) was > 90 µM. On the same count and under the same terms, under `O=C(c1ccc(F)cc1)C1CCN(CCn2c(=S)[nH]c3ccccc3c2=O)CC1` [Altanserin hydrochloride] stands > 50 µM; under `C=C(C)C(=O)OCC` [Ethyl methacrylate], > 100 µM; under `CC1(C)CC/C(=C\c2ccc(Cl)cc2)C1(O)Cn1cncn1` (stereo not shown) [Triticonazole], > 90 µM. As for `CN(C)CC[C@@H](c1ccc(Cl)cc1)c1ccccn1` [Dexchlorpheniramine hydrochloride], for the setting “AC50 (uM) modified / 1000”, the CC50 at 24 h is 24.8 µM. Same read-out and setting: under `NC(=S)C(N)=S` [Dithiooxamide] stands > 90 µM.

As to `Cc1occc(=O)c1OC(=O)C(C)C` [Maltol isobutyrate], where the note is “AC50 (uM) modified / 1000”, the CC50 at 24 h is > 90 µM. For the compound `C#CCOC(=O)/C=C(C)/C=C/CC(C)CCCC(C)C` (stereo not shown) [Kinoprene], the CC50 at 24 h (AC50 (uM) modified / 1000, Tox21_110001=Tox21_302008, viability, 1 nM T3 present, 24 h) is > 90 µM. For `CCO[Si](C)(CCCOCC1CO1)OCC` (stereo not shown) [Diethoxy(methyl)[3-(oxiran-2-ylmethoxy)propyl]silane], the CC50 at 24 h (AC50 (uM) modified / 1000) was > 90 µM.

As to `COc1ccc2c(C(=O)c3ccc(Cl)cc3)c(C)n(CC(=O)O)c2c1` [Clometacine], the CC50 at 24 h (AC50 (uM) modified / 1000, Tox21_110001=Tox21_113309, viability, 1 nM T3 present, 24 h) was > 50 µM. With `O=C(O)CC(=O)C(=O)O` [2-Oxobutanedioic acid], under “AC50 (uM) modified / 1000”, the CC50 at 24 h is > 90 µM. Consider `C=C(C)C(=O)OC1C[C@H]2CC[C@]1(C)C2(C)C` (stereo partly shown) [Isobornyl methacrylate], for which, for the setting “AC50 (uM) modified / 1000”, the CC50 at 24 h is > 90 µM.

For the setting “AC50 (uM) modified / 1000”, `C[C@@H]1CC[C@H]2[C@@H](C)C(=O)O[C@@H]3O[C@@]4(C)CC[C@@H]1[C@]32OO4` [Artemisinin] came in with a CC50 at 24 h of 4.4 µM. Turning to `N#CCCNCCC#N` [3,3'-Iminobispropanenitrile], the CC50 at 24 h (AC50 (uM) modified / 1000) was > 100 µM. On to `C[C@H]1O[C@@H](n2cc(F)c(=O)[nH]c2=O)[C@H](O)[C@@H]1O` [Doxifluridine], for which the CC50 at 24 h (AC50 (uM) modified / 1000) was > 50 µM.

(Values after article PMC6792352, “Limited Chemical Structural Diversity Found to Modulate Thyroid Hormone Receptor in the Tox21 Chemical Library” (Environmental Health Perspectives, 2019).)
